Laboratory results from paper PMC6512342 (Biochemical pharmacology, 2018).
“And” between values parts separate entries of the source, which are not always exact repeats. Identical values can stand only once.

Experiments:
CYP2D6 = details: read-out: KM for BMAMC; CYP2D6-containing bacterial membranes; cited from earlier work
CYP3A4 = details: cited from earlier work
human CYP2D6 = human CYP2D6 (Homo sapiens, UniProt P10635); assay: Substrate-induced spin shift titration, purified CYP2D6 in solution; assay type: binding; details: for maximal amplitude of the spin shift: purified CYP2D6 in solution
[1] = molecular target: T1, human CYP2D6 (CYP2D6-incorporated proteoliposomes) (Homo sapiens, UniProt P10635); assay: MDMA-dependent time-dependent inhibition
[2] = molecular target: T2, CYP2D6 (CYP2D6 Supersomes) (Homo sapiens, UniProt P10635); assay: MDMA-dependent TDI in CYP2D6-SS with BMAMC as probe substrate; details: 100 μM MDMA, exponential fit
[3] = molecular target: T1, human CYP2D6 (CYP2D6-incorporated proteoliposomes); assay: MDMA utilization and DHMA formation in CYP2D6-PLS; assay type: in vitro ADME
[4] = molecular target: T1, human CYP2D6 (CYP2D6-incorporated proteoliposomes); assay: Substrate-induced spin shift titration, CYP2D6-PLS; assay type: binding; details: for Kd: dissociation constant (KD), spin shift titration
[5] = healthy volunteers, recreational dose 100–150 mg; cited from earlier work
[6] = molecular target: T2, CYP2D6 (CYP2D6 Supersomes); assay: Spectroscopic study of MDMA-dependent MIC formation in CYP2D6-SS; assay type: biochemical; details: 100 μM MDMA, exponential fit
[7] = molecular target: T1, human CYP2D6 (CYP2D6-incorporated proteoliposomes); assay: Spectroscopic study of MDMA-dependent MIC formation in CYP2D6-PLS; assay type: biochemical
[8] = MDMA liver-to-blood ratio and liver concentration; details: estimated from plasma peak and liver-to-blood ratio
[9] = substrate: CCCCNCc1cc(=O)oc2cc(OC)ccc12; assay: Fluorometric determination of CYP2D6 activity with BMAMC in CYP2D6-SS; assay type: biochemical, human; details: other: CYP2D6-SS, 30 °C
[10] = CYP2D6-PLS, 100 μM MDMA, exponential fit
[11] = kinetic model fit, kinetics of DHMA production
[12] = kinetic model fit, kinetics of MIC formation

Molecule: CCCCNCc1cc(=O)oc2cc(OC)ccc12 [BMAMC, N-butyl 7-methoxy-4-(aminomethyl)-coumarin]
- Km (CYP2D6): 1.5 µM

Molecule: COc1cc([C@@H]2c3cc4c(cc3[C@H](O)[C@H]3COC(=O)[C@H]23)OCO4)cc(OC)c1OC [podophylotoxin]
- reversibility of the Fe2+:carbene complex (MIC) (CYP3A4): virtually irreversible

Molecule: CNC(C)Cc1ccc2c(c1)OCO2 (stereo not drawn) [MDMA, 3,4-methylenedioxymethamphetamine]
- Kd (human CYP2D6): 21.8 ± 7.7 µM
- maximal amplitude of the spin shift (human CYP2D6): 6.0± 1.5%
- Kd [1]: 23.9 µM
- reversibility of inactivation of CYP2D6 ([1]; CYP2D6-PLS): reversible
- Kobs (TDI) [1, 10]: 0.15 min⁻¹
- maximal depth of TDI at enzyme saturation with MDMA ([1]; CYP2D6-PLS, DXM as probe substrate, Michaelis-Menten fit): 80±8%
- relative amplitude of TDI at MDMA saturation ([1]; CYP2D6-PLS, rate of BMAMC metabolism): over 80%
- k3 ([1]; kinetic model fit, TDI): 3.2 min⁻¹
- k4 ([1]; kinetic model fit, TDI): 0.085 min⁻¹
- k5 ([1]; kinetic model fit, TDI): 0.033 min⁻¹
- k6 ([1]; kinetic model fit, TDI, MDMA-independent inactivation): 0.005 min⁻¹
- Finact ([1]; kinetic model fit, TDI, value fixed from MIC analysis): 0.42
- Kobs (TDI) [2]: 0.28 min⁻¹
- Kd [3]: 49.5 µM
- MDMA concentration after incubation ([3]; CYP2D6-PLS with NADPH, 1 hour, initial 5 μM MDMA): 1.5 µM
- decrease in MDMA concentration ([3]; CYP2D6-PLS with NADPH, 1 hour, initial 100 μM MDMA): ≤ 30 % of the initial concentration
- k3 [3, 11]: 3.9 min⁻¹
- k4 [3, 11]: 0.14 min⁻¹
- k5 [3, 11]: 0.047 min⁻¹
- k6 ([3]; kinetic model fit, kinetics of DHMA production, MDMA-independent inactivation): 0.041 min⁻¹
- Finact ([3]; kinetic model fit, kinetics of DHMA production, value fixed from MIC analysis): 0.42
- maximal amplitude of the spin shift (Amax) [4]: 8.1% and 10.9±5.5%
- Kd [4]: 24 µM and 27.9 µM
- peak concentration in blood plasma [5]: 1 pM
- Amax (MIC) [6]: 49%
- Kobs (MIC) [6]: 0.19 min⁻¹
- Amax (MIC) [7, 10]: 37%
- Kobs (MIC) [7, 10]: 0.085 min⁻¹
- maximal amplitude of MIC formation ([7]; CYP2D6-PLS, saturating MDMA): 45 ± 3 % of the total P450 content
- Kd ([7]; kD, kinetic model fit, kinetics of MIC formation, k2/k1 with k1 fixed): 55.5 µM
- k3 [7, 12]: 1.7 min⁻¹
- k4 [7, 12]: 0.167 min⁻¹
- k5 [7, 12]: 0.027 min⁻¹
- Finact ([7]; kinetic model fit, kinetics of MIC formation, CYP2D6-PLS): 0.423 and 0.42
- physiological concentration of MDMA in human liver [8]: ≤ 10 pM

Molecule: COc1ccc2c(c1)[C@]13CCCC[C@@H]1[C@H](C2)N(C)CC3 [DXM, Dextromethorphan]
- Kd (human CYP2D6): 45.7 ± 3.1 µM
- maximal amplitude of the spin shift (human CYP2D6): 11.9±1.8%
- maximal amplitude of the spin shift (Amax) [4]: 25% and 24.7±0.4%
- Kd [4]: 52 µM and 53.2 µM

B1: CYP2D6 (CYP2D6 Supersomes) (Homo sapiens) (protein)
chain: MGLEALVPLAVIVAIFLLLVDLMHRRQRWAARYPPGPLPLPGLGNLLHVDFQNTPYCFDQLRRRFGDVFSLQLAWTPVVVLNGLAAVREALVTHGEDTADRPPVPITQILGFGPRSQGVFLARYGPAWREQRRFSVSTLRNLGLGKKSLEQWVTEEAACLCAAFANHSGRPFRPNGLLDKAVSNVIASLTCGRRFEYDDPRFLRLLDLAQEGLKEESGFLREVLNAVPVLLHIPALAGKVLRFQKAFLTQLDELLTEHRMTWDPAQPPRDLTEAFLAEMEKAKGNPESSFNDENLRIVVADLFSAGMVTTSTTLAWGLLLMILHPDVQRRVQQEIDDVIGQVRRPEMGDQAHMPYTTAVIHEVQRFGDIVPLGVTHMTSRDIEVQGFRIPKGTTLITNLSSVLKDEAVWEKPFRFHPEHFLDAQGHFVKPEAFLPFSAGRRACLGEPLARMELFLFFTSLLQHFSFSVPTGQPRPSHHGVFAFLVSPSPYELCAVPR
- Km [9]: 3.5 µM
